Assays:
[1] = target: T1, MliILTPS1 (Melampsora lini, UniProt A0A858E7J4); assay: in vitro terpene synthase assay, SPME GC-MS; format: biochemical; conditions: room temperature, 60 min
T1 construct: gene ILTPS1; full-length synthesized cDNA in pET-32a, N-terminal His-tag, E. coli BL21(DE3) pLysS
T1 sequence (A0A858E7J4 1-329): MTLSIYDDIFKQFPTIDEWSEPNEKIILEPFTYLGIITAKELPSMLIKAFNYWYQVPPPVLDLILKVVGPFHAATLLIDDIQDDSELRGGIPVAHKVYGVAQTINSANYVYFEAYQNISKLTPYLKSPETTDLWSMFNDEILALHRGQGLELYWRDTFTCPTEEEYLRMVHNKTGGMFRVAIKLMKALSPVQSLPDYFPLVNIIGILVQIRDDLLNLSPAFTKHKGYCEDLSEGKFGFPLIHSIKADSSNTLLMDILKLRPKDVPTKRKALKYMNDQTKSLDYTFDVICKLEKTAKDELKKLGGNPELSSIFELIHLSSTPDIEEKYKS

[2] = target: T2, MlpGGDPS (Melampsora laricis-populina, UniProt A0A858E7G0); assay: radiochemical IDS assay, TLC; format: biochemical; conditions: MOPS pH 7.0, 10 mM MgCl2, 30 °C; co-substrate [1-14C]-IDP; product GGDP
T2 construct: gene GGDPS; full-length cDNA from infected Populus nigra leaves in pET-32a, N-terminal His-tag, E. coli BL21(DE3) pLysS
T2 sequence (A0A858E7G0 1-364): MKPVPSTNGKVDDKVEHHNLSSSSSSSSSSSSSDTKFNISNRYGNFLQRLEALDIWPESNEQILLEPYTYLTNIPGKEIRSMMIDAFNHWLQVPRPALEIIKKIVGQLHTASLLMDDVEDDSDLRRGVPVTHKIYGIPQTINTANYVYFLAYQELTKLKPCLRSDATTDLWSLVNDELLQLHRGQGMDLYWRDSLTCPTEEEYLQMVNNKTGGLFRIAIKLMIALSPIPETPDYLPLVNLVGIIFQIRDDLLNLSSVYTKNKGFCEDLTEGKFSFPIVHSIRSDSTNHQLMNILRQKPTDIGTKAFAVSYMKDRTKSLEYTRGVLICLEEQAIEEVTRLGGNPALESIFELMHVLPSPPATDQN

[3] = target: T3, MliGGDPS (Melampsora lini, UniProt A0A858E6N7); assay: radiochemical IDS assay, TLC; format: biochemical; conditions: MOPS pH 7.0, 10 mM MgCl2, 30 °C; co-substrate [1-14C]-IDP; product GGDP
T3 construct: gene GGDPS; full-length synthesized cDNA in pET-32a, N-terminal His-tag, E. coli BL21(DE3) pLysS
T3 sequence (A0A858E6N7 1-365): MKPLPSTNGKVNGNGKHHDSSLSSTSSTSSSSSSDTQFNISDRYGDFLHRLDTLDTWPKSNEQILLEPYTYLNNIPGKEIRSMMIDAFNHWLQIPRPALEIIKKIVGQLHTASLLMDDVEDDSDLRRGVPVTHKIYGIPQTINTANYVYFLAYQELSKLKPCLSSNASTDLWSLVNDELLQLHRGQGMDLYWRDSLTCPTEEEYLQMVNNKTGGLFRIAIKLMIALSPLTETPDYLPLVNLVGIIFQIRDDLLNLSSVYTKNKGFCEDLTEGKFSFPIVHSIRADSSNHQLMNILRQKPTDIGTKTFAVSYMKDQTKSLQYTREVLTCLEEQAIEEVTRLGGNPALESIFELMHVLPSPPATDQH

[4] = target: T4, MlpILTPS1 (Melampsora laricis-populina, UniProt A0A858E4Y8); assay: in vitro terpene synthase assay, SPME GC-MS; format: biochemical; conditions: room temperature, 60 min
T4 construct: gene ILTPS1; full-length cDNA from infected Populus nigra leaves in pET-32a, N-terminal His-tag, E. coli BL21(DE3) pLysS
T4 sequence (A0A858E4Y8 1-324): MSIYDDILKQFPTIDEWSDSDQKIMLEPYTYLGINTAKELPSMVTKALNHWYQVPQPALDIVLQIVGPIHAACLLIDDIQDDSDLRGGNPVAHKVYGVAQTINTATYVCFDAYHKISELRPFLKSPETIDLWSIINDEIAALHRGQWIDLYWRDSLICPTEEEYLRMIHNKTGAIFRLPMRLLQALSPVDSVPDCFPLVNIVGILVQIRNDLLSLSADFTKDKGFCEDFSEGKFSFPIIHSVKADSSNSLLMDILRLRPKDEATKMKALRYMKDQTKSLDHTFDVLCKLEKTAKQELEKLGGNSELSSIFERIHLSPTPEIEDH

[5] = target: T5, MlpILTPS2 (Melampsora laricis-populina, UniProt A0A858E4Y6); assay: in vitro terpene synthase assay, SPME GC-MS; format: biochemical; conditions: room temperature, 60 min
T5 construct: gene ILTPS2; full-length cDNA from infected Populus nigra leaves in pET-32a, N-terminal His-tag, E. coli BL21(DE3) pLysS
T5 sequence (A0A858E4Y6 1-316): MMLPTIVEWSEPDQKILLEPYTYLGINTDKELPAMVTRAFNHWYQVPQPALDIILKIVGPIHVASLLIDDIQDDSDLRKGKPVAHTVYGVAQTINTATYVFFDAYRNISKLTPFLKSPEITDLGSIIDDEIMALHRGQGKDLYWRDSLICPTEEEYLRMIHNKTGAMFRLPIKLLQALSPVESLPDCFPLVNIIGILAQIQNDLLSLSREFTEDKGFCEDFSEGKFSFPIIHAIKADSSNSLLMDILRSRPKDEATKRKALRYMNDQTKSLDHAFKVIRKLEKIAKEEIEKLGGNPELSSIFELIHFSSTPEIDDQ

[6] = substrate: CC(C)=CCC/C(C)=C/CC/C(C)=C/CO[P@@](=O)(O)OP(=O)(O)O; assay: radiochemical terpene synthase assay, hexane extraction; format: biochemical, Melampsora lini; conditions: MOPSO pH 7.0, 10 mM MgCl2, 0.05 mM MnCl2, room temperature, labelled compound
Procedure: radiochemical terpene synthase assay, hexane extraction on MliILTPS2 | the apparent Km values of MliILTPS2 and MliILTPS3 using FDP as substrate were determined

[7] = substrate: CC(C)=CCC/C(C)=C/CC/C(C)=C/CO[P@@](=O)(O)OP(=O)(O)O; assay: as above; format: biochemical, Melampsora lini; conditions: MOPSO pH 7.0, 10 mM MgCl2, 0.05 mM MnCl2, room temperature, labelled compound; remark: listed apart in the source
Procedure: radiochemical terpene synthase assay, hexane extraction on MliILTPS3 | the apparent Km values of MliILTPS2 and MliILTPS3 using FDP as substrate were determined

Molecule: CC(C)=CCC/C(C)=C/CC/C(C)=C/COP(=O)(O)OP(=O)(O)O [FDP]
- in vitro terpene synthase assay, SPME GC-MS ([1]; product (E)-nerolidol): both MliILTPS1 and MliILTPS3 converted FDP to (E)-nerolidol
- radiochemical IDS assay, TLC [2]: MlpGGDPS catalyzed the formation of GGDP using either DMADP, GDP, or FDP
- radiochemical IDS assay, TLC [3]: MliGGDPS was active with DMADP, GDP, and FDP to produce GGDP
- in vitro terpene synthase assay, SPME GC-MS ([4]; product (E,E)-alpha-farnesene): using FDP as substrate, MlpILTPS1 produced (E,E)-α-farnesene
- in vitro terpene synthase assay, SPME GC-MS ([5]; product (E)-nerolidol): MlpILTPS2 catalyzed the formation of (E)-nerolidol

Molecule: CC(C)=CCC/C(C)=C/COP(=O)(O)OP(=O)(O)O [GDP]
- in vitro terpene synthase assay, SPME GC-MS ([1]; product linalool): both MliILTPS1 and MliILTPS3 converted GDP to linalool
- in vitro terpene synthase assay, SPME GC-MS ([4]; products (E)-beta-ocimene (major), linalool (minor)): When GDP was provided as a substrate, MlpILTPS1 produced (E)-β-ocimene as a major product
- in vitro terpene synthase assay, SPME GC-MS ([5]; product linalool): In contrast, MlpILTPS2 produced only linalool

B1: MliILTPS2 (Melampsora lini) (protein)
chain: MSIYDDIFKQFPTIDEWSESNEKIMLEPYTHLGINTAKELPSMVTKAFNHWYQVPQPALDIILQIVGPIHAACLLIDDIQDDSDLRGGNPVAHKVYGVAQTINTATYVCFDAYHKISKLTPFSKSPETTDLWSIINDEIAALHRGQWIDLYWRDSLICPTEEEYLRMIHNKTGAIFRLPIKLLQALSPVDSPPDCFPLVNVVGILVQIRNDLLSLSPDFTKDKGFCEDFSEGKFSFPIIHSVKADSSNSLLIDILRLRPKDEPTKRKALRYMKDQTKSLDHTFDVLCKLEKTAKEELEKLGGNSELSSILELIQVSPIPEIADR
notes: full-length synthesized cDNA in pET-32a, N-terminal His-tag, E. coli BL21(DE3) pLysS
- Km [6]: 1.9 ± 0.3 µM
- kcat [6]: 0.01 ± 0.001 s⁻¹

B2: MliILTPS3 (Melampsora lini) (protein)
chain: MSIYDDIFKQFPMIDEWSDSDEKILVEPYTYLGINTAKELPSMVTKAFNHWYQVPQPALDIILQIIGPIHAASLLLDDIQDDSDLRGGNPVAHKVYGVAQTINTATYVCFDAYHKVSQLTPFLKSPETTDLWSIINDEIAALHRGQGIELYWRDSLMCPTEEEYLRMIHNKTGAIFRLPIKLLQALSSVDSPPDCFPLLNIVGILFQIQNDISSLSPDFTKDKGFCEDFSEGKFSFPIIHSVKADSSNSLLMDILRLRPKDEATKRKALRFMKDQTKSLDHTFHVLCKLKKTAQEELEKLGGNSELSSILERIQVSPTPEIEDR
notes: as for B1
- Km [7]: 1.6 ± 0.2 µM
- kcat [7]: 0.05 ± 0.004 s⁻¹
